Measured values: patent US20070059364A1, “Active substance combination comprising a compound with npy receptor affinity and a compound with 5-ht6 receptor affinity” (Laboratorios Del Dr. Esteve S.A., priority 2003, published 2007)

Compound	melting point
O=S(=O)(CCc1cccc2ccccc12)Nc1cccc2ccn(CCN3CCCC3)c12 [Example 8g, 2-(naphth-1-yl)-N-(1-(2-(pyrrolidin-1-yl)ethyl)-1H-indol-7-yl)ethansulfonamide]	46 to 49 °C
CN(C)CCn1ccc2cc(NS(=O)(=O)c3ccc(Cl)s3)ccc21 [Example 9e, N-[1-(2-dimethylaminoethyl)-1H-indole-5-yl]-5-chlorothiophene-2-sulfonamide]	145 to 147 °C
CN(C)CCn1ccc2cc(NS(=O)(=O)c3c(Cl)nc4sccn34)ccc21 [Example 11e, N-[1-(2-dimethylaminoethyl)-1H-indole-5-yl]-6-chloroimidazo[2,1-b]thiazole-5-sulfonamide]	50 to 52 °C
CN1CCC(c2c[nH]c3ccc(NS(=O)(=O)c4cccc5ccccc45)cc23)CC1 [Example 12c, N-[3-(1-methylpiperidin-4-yl)-1H-indol-5-yl]naphthalene-1-sulphonamide]	254 to 256 °C
CN(C)CCn1ccc2cc(NS(=O)(=O)c3cc(Cl)cc(Cl)c3)ccc21 [Example 12e, N-[1-(2-dimethylaminoethyl)-1H-indole-5-yl]-3,5-dichlorobenzenesulfonamide]	124 to 126 °C
O=S(=O)(Nc1ccc2ccn(CCN3CCCC3)c2c1)c1c(Cl)nc2sccn12 [Example 12f, 6-Chloro-N-[1-[2-(pyrrolidin-1-yl)ethyl]-1H-indol-6-yl]-imidazo[2,1-b]thiazole-5-sulfonamide]	53 to 57 °C
CN1CCC(c2c[nH]c3ccc(NS(=O)(=O)c4cccc5ccccc45)cc23)CC1.Cl [Example 13c, N-[3-(1-methylpiperidin-4-yl)-1H-indol-5-yl]naphthalene-1-sulphonamide hydrochloride]	212 °C (dec.)
CN(C)CCn1ccc2cc(NS(=O)(=O)c3cccc(Br)c3)ccc21 [Example 13e, N-[1-(2-dimethylaminoethyl)-1H-indole-5-yl]-3-bromobenzenesulfonamide]	114 to 116 °C
O=S(=O)(Nc1ccc2ccn(CCN3CCCC3)c2c1)c1ccc(-c2ccccc2)cc1 [Example 13f, 4-Phenyl-N-(1-(2-(pyrrolidin-1-yl)ethyl)-1H-indol-6-yl)-benzenesulfonamide]	178 to 181 °C
CN1CCC(c2c[nH]c3ccc(NS(=O)(=O)c4ccc(Cl)s4)cc23)CC1 [Example 14c, N-[3-(1-methylpiperidin-4-yl)-1H-indol-5-yl]-5-chlorothiophene-2-sulphonamide]	284 °C (dec.)
CN(C)CCn1ccc2cc(NS(=O)(=O)c3cccc([N+](=O)[O-])c3)ccc21 [Example 14e, N-[1-(2-dimethylaminoethyl)-1H-indole-5-yl]-3-nitrobenzenesulfonamide]	138 to 140 °C
CN1CCC(c2c[nH]c3ccc(NS(=O)(=O)c4ccc(-c5ccccc5)cc4)cc23)CC1 [Example 15c, N-[3-(1-methylpiperidin-4-yl)-1H-indol-5-yl]-4-phenylbenzenesulphonamide]	247 to 248 °C
CN(C)CCn1ccc2cc(NS(=O)(=O)Cc3ccccc3)ccc21 [Example 15e, N-[1-(2-dimethylaminoethyl)-1H-indole-5-yl]-1-phenylmethanesulfonamide]	163 to 166 °C
O=S(=O)(Nc1ccc2ccn(CCN3CCCC3)c2c1)c1ccc(Oc2ccccc2)cc1 [Example 15f, 4-Phenoxy-N-(1-(2-(pyrrolidin-1-yl)ethyl)-1H-indol-6-yl)-benzenesulfonamide]	59 to 62 °C
CN1CCC(c2c[nH]c3ccc(NS(=O)(=O)c4cccc5cccnc45)cc23)CC1 [Example 16c, N-[3-(1-methylpiperidin-4-yl)-1H-indol-5-yl]quinoline-8-sulphonamide]	280 °C (dec.)
O=S(=O)(Nc1ccc2c(ccn2CCN2CCCC2)c1)c1ccc2ccccc2c1 [Example 16e, N-[1-(2-pyrrolidine-1-yl-ethyl)-1H-indole-5-yl]-naphthalene-2-sulfonamide]	138 to 140 °C
CCN(CC)CCc1c[nH]c2ccc(NS(=O)(=O)c3ccc4ccccc4c3)cc12 [Example 17c, N-[3-(2-diethylaminoethyl)-1H-indol-5-yl]naphthalene-2-sulphonamide]	172 to 173 °C
O=S(=O)(Nc1ccc2c(ccn2CCN2CCCC2)c1)c1cccc2ccccc12 [Example 17e, N-[1-(2-pyrrolidine-1-yl-ethyl)-1H-indole-5-yl]-naphthalene-1-sulfonamide]	186 to 189 °C
Cc1c(S(=O)(=O)Nc2ccc3c(ccn3CCN3CCCC3)c2)sc2ccc(Cl)cc12 [Example 18e, N-[1-(2-pyrrolidine-1-yl-ethyl)-1H-indole-5-yl]-5-chloro-3-methylbenzo[b]thiophene-2-sulfonamide]	156 to 158 °C
Cc1c(S(=O)(=O)Nc2ccc3[nH]cc(CN4CCN(C)CC4)c3c2)sc2ccc(Cl)cc12 [Example 19c, N-[3-(4-methylpiperazin-1-yl)methyl-1H-indol-5-yl]-5-chloro-3-methylbenzo[b]thiophene-2-sulphonamide]	230 °C (dec.)
CN(C)CCn1ccc2cc(NS(=O)(=O)c3cc(Cl)c(Cl)s3)ccc21 [Example 20e, N-[1-(2-dimethylaminoethyl)-1H-indole-5-yl]-4,5-dichlorothiophene-2-sulfonamide]	120 to 123 °C
CC(=O)c1ccc(S(=O)(=O)Nc2ccc3c(ccn3CCN(C)C)c2)cc1 [Example 21e, N-[1-(2-dimethylaminoethyl)-1H-indole-5-yl]-4-acetylbenzenesulfonamide]	175 °C (dec.)
CN(C)CCn1ccc2cc(NS(=O)(=O)c3ccc(Br)cc3)ccc21 [Example 22e, N-[1-(2-dimethylaminoethyl)-1H-indole-5-yl]-4-bromobenzenesulfonamide]	114 to 117 °C
COc1ccc(S(=O)(=O)Nc2ccc3c(ccn3CCN(C)C)c2)cc1 [Example 23e, N-[1-(2-dimethylaminoethyl)-1H-indole-5-yl]-4-methoxybenzenesulfonamide]	141 to 144 °C
CN(C)CCn1ccc2cc(NS(=O)(=O)c3ccc([N+](=O)[O-])cc3)ccc21 [Example 25e, N-[1-(2-dimethylaminoethyl)-1H-indole-5-yl]-4-nitrobenzenesulfonamide]	60 to 64 °C
CN(C)CCn1ccc2cc(NS(=O)(=O)c3ccc(F)cc3)ccc21 [Example 26e, N-[1-(2-dimethylaminoethyl)-1H-indole-5-yl]-4-fluorobenzenesulfonamide]	138 to 140 °C
CCN(CC)CCn1ccc2cc(NS(=O)(=O)c3c(Cl)nc4sccn34)ccc21 [Example 27e, N-[1-(2-diethylaminoethyl)-1H-indole-5-yl]-6-chloroimidazo[2,1-b]thiazole-5-sulfonamide]	68 to 70 °C
Cc1c(S(=O)(=O)Nc2ccc3[nH]cc(CN(C)C)c3c2)sc2ccc(Cl)cc12 [Example 30c, N-[3-dimethylaminomethyl-1H-indol-5-yl]-5-chloro-3-methylbenzo[b]thiophene-2-sulphonamide]	148 to 152 °C
CCN(CC)CCn1ccc2cc(NS(=O)(=O)c3cccc4ccccc34)ccc21 [Example 30e, N-(1-(2-(diethylamino)ethyl)-1H-indol-5-yl)-naphthalene-1-sulfonamide]	133 to 135 °C
